What was measured:
[1] = molecular target: GTPase KRas (Homo sapiens) (UniProt P01116); assay: Inhibition of KRAS in human MCF7 cells assessed as reduction in phosphorylated ERK1/2 at Thr185/Tyr187 residues protein level at 35 uM measured after 24 hrs by Western blot analysis relative to control; assay type: cell-based
[2] = molecular target: GTPase KRas (Homo sapiens) (UniProt P01116); assay: Inhibition of KRAS in human MCF7 cells assessed as reduction in Pan RAS protein level at 35 uM measured after 24 hrs by Western blot analysis relative to control; assay type: cell-based
MDA-MB-231 [3] = assay: Cell cycle arrest in human MDA-MB-231 cells assessed as accumulation at S phase at 15 uM measured after 48 hrs by propidium iodide/RNase staining based flow cytometry (reference value: 22.09 %); assay type: functional
[4] = molecular target: GTPase KRas (Homo sapiens) (UniProt P01116); assay: Inhibition of KRAS in human MDA-MB-231 cells assessed as reduction in phosphorylation of ERK measured after 24 hrs by Western blot analysis; assay type: cell-based
[5] = molecular target: GTPase KRas (Homo sapiens) (UniProt P01116); assay: Inhibition of KRAS in human MCF7 cells assessed as reduction in MEK1/2 9G3 protein level at 35 uM measured after 24 hrs by Western blot analysis relative to control; assay type: cell-based
[6] = molecular target: GTPase KRas (Homo sapiens) (UniProt P01116); assay: Inhibition of KRAS in human MDA-MB-231 cells assessed as reduction in phosphorylated MEK1/2 at Ser217/221 residues protein level at 15 uM measured after 24 hrs by Western blot analysis relative to control; assay type: cell-based
[7] = molecular target: GTPase KRas (Homo sapiens) (UniProt P01116); assay: Inhibition of KRAS in human MDA-MB-231 cells assessed as reduction in phosphorylated RAF-1 E1 protein level at 15 uM measured after 24 hrs by Western blot analysis relative to control; assay type: cell-based
MCF7 [8] = assay: Induction of apoptosis in human MCF7 cells assessed as necrotic cells at 15 uM measured after 48 hrs by annexinV-FITC/propidium iodide staining based flow cytometry (reference value: 0.08 %); assay type: functional
MDA-MB-231 [9] = assay: Induction of apoptosis in human MDA-MB-231 cells assessed as live cells at 15 uM measured after 48 hrs by annexinV-FITC/propidium iodide staining based flow cytometry (reference value: 99 %); assay type: functional
MCF7 [10] = assay: Induction of apoptosis in human MCF7 cells assessed as early apoptotic cells at 25 uM measured after 48 hrs by annexinV-FITC/propidium iodide staining based flow cytometry (reference value: 0.04 %); assay type: functional
[11] = molecular target: GTPase KRas (Homo sapiens) (UniProt P01116); assay: Inhibition of KRAS in human MCF7 cells assessed as reduction in phosphorylated ERK1/2 at Thr185/Tyr187 residues protein level at 15 uM measured after 24 hrs by Western blot analysis relative to control; assay type: cell-based
[12] = molecular target: GTPase KRas (Homo sapiens) (UniProt P01116); assay: Inhibition of KRAS in human MDA-MB-231 cells assessed as reduction in MEK1/2 9G3 protein level at 15 uM measured after 24 hrs by Western blot analysis relative to control; assay type: cell-based
MCF7 [13] = assay: Induction of apoptosis in human MCF7 cells assessed as necrotic cells at 25 uM measured after 48 hrs by annexinV-FITC/propidium iodide staining based flow cytometry (reference value: 0.08 %); assay type: functional
HEK-293T = assay: Cytotoxicity against human 293T cells assessed as reduction in cell viability measured after 48 hrs by MTT assay; assay type: cell-based
MDA-MB-231 [14] = assay: Induction of apoptosis in human MDA-MB-231 cells assessed as early apoptotic cells at 25 uM measured after 48 hrs by annexinV-FITC/propidium iodide staining based flow cytometry (reference value: 0.69 %); assay type: functional
[15] = molecular target: GTPase KRas (Homo sapiens) (UniProt P01116); assay: Inhibition of KRAS in human MCF7 cells assessed as reduction in Pan RAS protein level at 15 uM measured after 24 hrs by Western blot analysis relative to control; assay type: cell-based
[16] = molecular target: GTPase KRas (Homo sapiens) (UniProt P01116); assay: Inhibition of KRAS in human MCF7 cells assessed as reduction in phosphorylated RAF-1 E1 protein level at 25 uM measured after 24 hrs by Western blot analysis relative to control; assay type: cell-based
MDA-MB-231 [17] = assay: Induction of necrosis in human MDA-MB-231 cells; assay type: functional, cell-based
MDA-MB-231 [18] = assay: Cell cycle arrest in human MDA-MB-231 cells assessed as accumulation at G2 phase at 25 uM measured after 48 hrs by propidium iodide/RNase staining based flow cytometry (reference value: 3.35 %); assay type: functional
[19] = molecular target: GTPase KRas (Homo sapiens) (UniProt P01116); assay: Inhibition of KRAS in human MDA-MB-231 cells assessed as reduction in phosphorylated ERK1/2 at Thr185/Tyr187 residues protein level at 15 uM measured after 24 hrs by Western blot analysis relative to control; assay type: cell-based
MCF7 [20] = assay: Induction of apoptosis in human MCF7 cells assessed as live cells at 15 uM measured after 48 hrs by annexinV-FITC/propidium iodide staining based flow cytometry (reference value: 99.71 %); assay type: functional
[21] = molecular target: GTPase KRas (Homo sapiens) (UniProt P01116); assay: Inhibition of KRAS in human MDA-MB-231 cells assessed as reduction in phosphorylation of RAF measured after 24 hrs by Western blot analysis; assay type: cell-based
[22] = molecular target: GTPase KRas (Homo sapiens) (UniProt P01116); assay: Inhibition of KRAS in human MDA-MB-231 cells assessed as reduction in ERK1/2 137F5 protein level at 35 uM measured after 24 hrs by Western blot analysis relative to control; assay type: cell-based
MCF7 [23] = assay: Induction of apoptosis in human MCF7 cells assessed as early apoptotic cells at 15 uM measured after 48 hrs by annexinV-FITC/propidium iodide staining based flow cytometry (reference value: 0.04 %); assay type: functional
[24] = molecular target: GTPase KRas (Homo sapiens) (UniProt P01116); assay: Inhibition of KRAS in human MCF7 cells assessed as reduction in Pan RAS protein level at 25 uM measured after 24 hrs by Western blot analysis relative to control; assay type: cell-based
[25] = molecular target: GTPase KRas (Homo sapiens) (UniProt P01116); assay: Inhibition of KRAS in human MCF7 cells assessed as reduction in phosphorylated MEK1/2 at Ser217/221 residues protein level at 25 uM measured after 24 hrs by Western blot analysis relative to control; assay type: cell-based
[26] = molecular target: GTPase KRas (Homo sapiens) (UniProt P01116); assay: Inhibition of KRAS in human MCF7 cells assessed as reduction in phosphorylated RAF-1 E1 protein level at 35 uM measured after 24 hrs by Western blot analysis relative to control; assay type: cell-based
[27] = molecular target: GTPase KRas (Homo sapiens) (UniProt P01116); assay: Inhibition of KRAS in human MDA-MB-231 cells assessed as reduction in phosphorylated MEK1/2 at Ser217/221 residues protein level at 25 uM measured after 24 hrs by Western blot analysis relative to control; assay type: cell-based
[28] = molecular target: GTPase KRas (Homo sapiens) (UniProt P01116); assay: Inhibition of KRAS in human MDA-MB-231 cells assessed as reduction in phosphorylated ERK1/2 at Thr185/Tyr187 residues protein level at 25 uM measured after 24 hrs by Western blot analysis relative to control; assay type: cell-based
[29] = molecular target: GTPase KRas (Homo sapiens) (UniProt P01116); assay: Inhibition of KRAS in human MDA-MB-231 cells assessed as reduction in Pan RAS protein level at 15 uM measured after 24 hrs by Western blot analysis relative to control; assay type: cell-based
MDA-MB-231 [30] = assay: Cell cycle arrest in human MDA-MB-231 cells assessed as accumulation at G1 phase at 25 uM measured after 48 hrs by propidium iodide/RNase staining based flow cytometry (reference value: 74.56 %); assay type: functional
[31] = molecular target: GTPase KRas (Homo sapiens) (UniProt P01116); assay: Inhibition of KRAS in human MDA-MB-231 cells assessed as reduction in Pan RAS protein level at 35 uM measured after 24 hrs by Western blot analysis relative to control; assay type: cell-based
MDA-MB-231 [32] = assay: Antiproliferative activity against human MDA-MB-231 cells reduction in cell viability measured after 48 hrs by MTT assay; assay type: functional, cell-based

O=P(Oc1ccccc1)(Oc1ccccc1)OC1C2OC3(c4ccccc4)OC(C2O)C(O)C1O3 (stereo not drawn)
fold change (FC) [1]: 0.35
fold change (FC) [2]: 1.11
Activity (MDA-MB-231 [3]): 44.74%
inhibition [4]: Dose-dependent effect
fold change (FC) [5]: 0.87
fold change (FC) [6]: 1.24
fold change (FC) [7]: 0.85
Activity (MCF7 [8]): 66.88%
Activity (MDA-MB-231 [9]): 91.93%
Activity (MCF7 [10]): 1.23%
fold change (FC) [11]: 1.02
fold change (FC) [12]: 0.91
Activity (MCF7 [13]): 61.44%
IC50 (HEK-293T): 39.5 µM
Activity (MDA-MB-231 [14]): 0.07%
fold change (FC) [15]: 0.99
fold change (FC) [16]: 0.99
Activity (MDA-MB-231 [17]): Dose-dependent effect
Activity (MDA-MB-231 [18]): 0%
fold change (FC) [19]: 1.15
Activity (MCF7 [20]): 32.46%
inhibition [21]: Dose-dependent effect
fold change (FC) [22]: 0.93
Activity (MCF7 [23]): 0.37%
fold change (FC) [24]: 1.16
fold change (FC) [25]: 1.12
fold change (FC) [26]: 1.05
fold change (FC) [27]: 0.97
fold change (FC) [28]: 1
fold change (FC) [29]: 1.16
Activity (MDA-MB-231 [30]): 59.93%
fold change (FC) [31]: 0.46
Activity (MDA-MB-231 [32]): Dose-dependent effect

From ChEMBL document CHEMBL4622932, “Design, synthesis and biological evaluation of new Myo-inositol derivatives as potential RAS inhibitors” (Bioorg Med Chem Lett, 2020)
